# Measurements published in patent US20260297042A1, “BIARYLAMIDE DERIVATIVES AND THEIR USE AS PKMYT1 INHIBITORS” (CANCER RESEARCH TECHNOLOGY LIMITED, priority 2023, published 2026).
# pIC50: −log10 of the molar value.
# How the values were obtained:
# Human PKMYT1 = target: T1, Human PKMYT1 (Homo sapiens, UniProt Q99640); assay: PKMYT1 biochemical ADP-Glo enzymatic assay; conditions: PKMYT1 kinase domain 15 nM; ADP-Glo; banded values
# T1 construct: Human PKMYT1 75-362 was cloned as a TEV cleavable 6xHis fusion; 6xHis (TEV cleavable) (cleaved yes); made in house; host or cells: bacterial cells
# T1 sequence (Q99640 75-362): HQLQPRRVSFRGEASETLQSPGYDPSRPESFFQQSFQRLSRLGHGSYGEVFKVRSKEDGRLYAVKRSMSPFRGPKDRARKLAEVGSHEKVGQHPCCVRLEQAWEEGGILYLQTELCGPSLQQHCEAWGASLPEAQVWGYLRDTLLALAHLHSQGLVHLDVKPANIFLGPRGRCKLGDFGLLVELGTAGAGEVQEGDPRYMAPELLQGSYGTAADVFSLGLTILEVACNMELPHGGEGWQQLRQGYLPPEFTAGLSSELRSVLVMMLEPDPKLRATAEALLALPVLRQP
# Procedure, shortened: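 Intrinsic ATPase activity of E. coli-expressed, tag-cleaved human PKMYT1 kinase domain (75-362), 15 nM, with 500 µM ATP in HEPES pH 7.5/MgCl2/EGTA/Brij-35, 1% DMSO, 60 min at 26 °C. ADP formed was read by ADP-Glo Max luminescence; IC50 from 10-point, 3-fold dilution curves.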
# KYSE-30 cells = assay: Cancer cell line proliferation assay, ATP-based cell viability (Cell Titre Glow), KYSE-30 (normal CCNE1); conditions: Homo sapiens, KYSE-30 cells (normal CCNE1), concentration that achieves 50% cell growth proliferation inhibition, read-out: KYSE30 Gl50
# Procedure, shortened: (§1)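 CellTiter-Glo luminescence endpoint; PKMYT1 inhibitor exposure; GI50 = conc. for 50% growth inhibition, curve-fitted.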
# WEE1 = target: T2, WEE1 (Homo sapiens, UniProt P30291); assay: Selectivity versus WEE1 assay (ADP-Glo enzymatic assay); format: biochemical; conditions: for pIC50: WEE1 15 nM, ADP-Glo, banded values; for PKMYT1 vs. WEE1 selectivity: fold difference in selectivity for PKMYT1 over WEE1, banded
# T2 construct: purchased Thermo Fisher PR7373A
# T2 sequence (P30291 whole entry): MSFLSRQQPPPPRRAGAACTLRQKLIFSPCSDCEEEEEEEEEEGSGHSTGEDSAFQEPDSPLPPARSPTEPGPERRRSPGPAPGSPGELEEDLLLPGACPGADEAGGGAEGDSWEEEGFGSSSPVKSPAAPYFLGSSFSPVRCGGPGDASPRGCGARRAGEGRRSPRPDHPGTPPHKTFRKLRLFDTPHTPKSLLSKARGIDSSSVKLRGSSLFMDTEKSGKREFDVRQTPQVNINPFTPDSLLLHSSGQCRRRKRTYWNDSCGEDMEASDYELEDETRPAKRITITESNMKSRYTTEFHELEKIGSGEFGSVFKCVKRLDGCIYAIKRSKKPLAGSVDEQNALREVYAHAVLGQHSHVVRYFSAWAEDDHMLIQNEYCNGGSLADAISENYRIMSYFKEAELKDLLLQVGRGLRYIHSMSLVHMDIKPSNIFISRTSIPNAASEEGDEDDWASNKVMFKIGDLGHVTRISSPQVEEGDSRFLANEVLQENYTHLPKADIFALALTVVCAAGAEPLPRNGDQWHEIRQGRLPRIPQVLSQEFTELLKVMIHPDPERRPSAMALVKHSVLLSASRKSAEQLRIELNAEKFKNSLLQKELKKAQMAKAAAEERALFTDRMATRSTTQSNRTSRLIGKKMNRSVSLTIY
# Procedure, shortened: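 Kinase at 15 nM final in 50 mM HEPES pH 7.5, 10 mM MgCl2, 1 mM EGTA, 0.01% Brij-35, 1% DMSO was started with 30 µM ATP and run 60 min at 26° C. ADP formed was read by ADP-Glo luminescence; IC50 came from dose-response curves.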
# OVCAR 3 cells = assay: Cancer cell line proliferation assay, ATP-based cell viability (Cell Titre Glow), OVCAR 3 (CCNE1-amplified); conditions: KYSE30 (normal CCNE1) GI50 vs. OVCAR 3 (CCNE1-amplified) GI50
# Procedure, shortened: as §1
# [1] = target: T3, Cellular PKMYT1 Biomarker CDK1 pT14 (Homo sapiens, UniProt Q99640); assay: Inhibition of cellular PKMYT1 biomarker CDK1 pT14 in OVCAR 3 cells (immunoblot); format: cell-based; conditions: 20 hours incubation
# T3 construct: read-out CDK1 phospho-T14 immunoblot
# T3 sequence (Q99640 1-499): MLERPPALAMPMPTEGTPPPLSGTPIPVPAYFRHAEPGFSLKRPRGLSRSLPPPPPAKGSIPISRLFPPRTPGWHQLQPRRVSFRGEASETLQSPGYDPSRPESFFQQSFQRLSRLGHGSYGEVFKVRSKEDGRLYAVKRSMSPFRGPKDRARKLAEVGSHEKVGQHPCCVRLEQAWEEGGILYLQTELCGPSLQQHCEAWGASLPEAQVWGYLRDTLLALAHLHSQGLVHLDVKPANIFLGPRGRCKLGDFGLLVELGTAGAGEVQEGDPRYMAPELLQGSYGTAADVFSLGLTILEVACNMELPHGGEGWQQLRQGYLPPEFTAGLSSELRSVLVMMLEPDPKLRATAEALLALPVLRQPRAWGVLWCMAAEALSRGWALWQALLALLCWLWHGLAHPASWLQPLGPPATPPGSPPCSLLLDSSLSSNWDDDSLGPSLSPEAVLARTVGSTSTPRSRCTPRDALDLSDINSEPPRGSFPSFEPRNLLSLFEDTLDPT
# Procedure, shortened: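 Confluent OVCAR 3 cells treated with a compound concentration range for 20 h at 37 °C. Lysates analysed by automated capillary immunoblot for CDK1 phospho-T14, with vinculin, fluorescence detection; IC50 by regression.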
SMILES,pIC50 (Human PKMYT1),pIC50 (WEE1),PKMYT1 vs. WEE1 selectivity (WEE1),pIC50 [1],GI50 (KYSE-30 cells) [µM],Selectivity ratio KYSE30 Gl50 vs. OVCAR3 Gl50 (OVCAR 3 cells)
"CCN(C(=O)Cn1cc(C)c(Nc2ncc(C(=O)Nc3c(C)ccc(O)c3C)s2)n1)C1CC1 [BAA-551, 2-((1-(2-(cyclopropyl(ethyl)amino)-2-oxoethyl)-4-methyl-1H-pyrazol-3-yl)amino)-N-(3-hydroxy-2,6-dimethylphenyl)thiazole-5-carboxamide]",> 7.30,4.96 to 6.00,X (100-<1000 fold),> 7.00,0.5 to 5,Y (>20 fold)
"Cc1cn(CC(=O)N(C)C2CC2)nc1Nc1ncc(C(=O)Nc2c(C)ccc(O)c2C)s1 [BAA-554, 2-((1-(2-(cyclopropyl(methyl)amino)-2-oxoethyl)-4-methyl-1H-pyrazol-3-yl)amino)-N-(3-hydroxy-2,6-dimethylphenyl)thiazole-5-carboxamide]",> 7.30,4.96 to 6.00,X (100-<1000 fold),> 7.00,> 5,Y (>20 fold)
"CCN(CC)C(=O)Cn1cc(Cl)c(Nc2ncc(C(=O)Nc3c(C)ccc(O)c3C)s2)n1 [BAA-560, 2-((4-chloro-1-(2-(diethylamino)-2-oxoethyl)-1H-pyrazol-3-yl)amino)-N-(3-hydroxy-2,6-dimethylphenyl)thiazole-5-carboxamide]",> 7.30,4.96 to 6.00,X (100-<1000 fold),> 7.00,0.5 to 5,Y (>20 fold)
"Cc1cn(CCF)nc1Nc1ncc(C(=O)Nc2c(C)ccc(O)c2Br)s1 [BAA-565, N-(2-bromo-3-hydroxy-6-methylphenyl)-2-((1-(2-fluoroethyl)-4-methyl-1H-pyrazol-3-yl)amino) thiazole-5-carboxamide]",> 7.30,4.96 to 6.00,X (100-<1000 fold),> 7.00,> 5,Y (>20 fold)
"Cc1ccc(O)c(C)c1NC(=O)c1cnc(Nc2n[nH]cc2Cl)s1 [BAA-566, 2-((4-chloro-1H-pyrazol-3-yl)amino)-N-(3-hydroxy-2,6-dimethylphenyl)thiazole-5-carboxamide]",> 7.30,4.96 to 6.00,X (100-<1000 fold),> 7.00,> 5,Y (>20 fold)
"Cc1ccc(O)c(C)c1NC(=O)c1cnc(Nc2nn(CC(F)F)cc2Cl)s1 [BAA-569, 2-((4-chloro-1-(2,2-difluoroethyl)-1H-pyrazol-3-yl)amino)-N-(3-hydroxy-2,6-dimethylphenyl)thiazole-5-carboxamide]",> 7.30,4.96 to 6.00,X (100-<1000 fold),> 7.00,0.5 to 5,Y (>20 fold)
"Cc1ccc(O)c(C)c1NC(=O)c1cnc(Nc2cc(N3CCOCC3)ncn2)s1 [BAA-571, N-(3-hydroxy-2,6-dimethylphenyl)-2-((6-morpholinopyrimidin-4-yl)amino)thiazole-5-carboxamide]",> 7.30,6.00 to 7.30,W (10-<100 fold),> 7.00,0.5 to 5,Y (>20 fold)
"Cc1nc(Nc2ncc(C(=O)Nc3c(C)ccc(O)c3C)s2)cc(N2CCOCC2)n1 [BAA-572, N-(3-hydroxy-2,6-dimethylphenyl)-2-((2-methyl-6-morpholinopyrimidin-4-yl)amino)thiazole-5-carboxamide]",> 7.30,6.00 to 7.30,W (10-<100 fold),> 7.00,0.5 to 5,Y (>20 fold)

# The next lines start with results.
pIC50 (Human PKMYT1),pIC50 (WEE1),PKMYT1 vs. WEE1 selectivity (WEE1),pIC50 [1],SMILES,GI50 (KYSE-30 cells) [µM],Selectivity ratio KYSE30 Gl50 vs. OVCAR3 Gl50 (OVCAR 3 cells)
> 7.30,4.96 to 6.00,X (100-<1000 fold),> 7.00,"Cc1cn(C(C)C(=O)N2CCCC2)nc1Nc1ncc(C(=O)Nc2c(C)ccc(O)c2C)s1 (stereo not drawn) [BAA-488, N-(3-hydroxy-2,6-dimethylphenyl)-2-((4-methyl-1-(1-oxo-1-(pyrrolidin-1-yl)propan-2-yl)-1H-pyrazol-3-yl)amino)thiazole-5-carboxamide]",> 5,Y (>20 fold)
> 7.30,4.96 to 6.00,X (100-<1000 fold),> 7.00,"Cc1cn(CC(=O)N2CCCC2C(F)(F)F)nc1Nc1ncc(C(=O)Nc2c(C)ccc(O)c2C)s1 (stereo not drawn) [BAA-493, N-(3-hydroxy-2,6-dimethylphenyl)-2-((4-methyl-1-(2-oxo-2-(2-(trifluoromethyl)pyrrolidin-1-yl)ethyl)-1H-pyrazol-3-yl)amino)thiazole-5-carboxamide]",> 5,Y (>20 fold)
> 7.30,4.96 to 6.00,X (100-<1000 fold),6.00 to 7.00,"Cc1cn(CC(=O)N2CCC(C(F)(F)F)C2)nc1Nc1ncc(C(=O)Nc2c(C)ccc(O)c2C)s1 (stereo not drawn) [BAA-504, N-(3-hydroxy-2,6-dimethylphenyl)-2-((4-methyl-1-(2-oxo-2-(3-(trifluoromethyl)pyrrolidin-1-yl)ethyl)-1H-pyrazol-3-yl)amino)thiazole-5-carboxamide]",> 5,Y (>20 fold)
> 7.30,4.96 to 6.00,X (100-<1000 fold),> 7.00,"CCN(CC)C(=O)C(C)n1cc(C)c(Nc2ncc(C(=O)Nc3c(C)ccc(O)c3C)s2)n1 (stereo not drawn) [BAA-510, 2-((1-(1-(diethylamino)-1-oxopropan-2-yl)-4-methyl-1H-pyrazol-3-yl)amino)-N-(3-hydroxy-2,6-dimethylphenyl)thiazole-5-carboxamide]",> 5,Y (>20 fold)
> 7.30,4.96 to 6.00,W (10-<100 fold),> 7.00,Cc1cn(CC2CCOC2)nc1Nc1ncc(C(=O)Nc2c(C)ccc(O)c2C)s1 (stereo not drawn) [BAA-543],> 5,Y (>20 fold)
> 7.30,4.96 to 6.00,X (100-<1000 fold),> 7.00,"Cc1ccc(O)c(C)c1NC(=O)c1cnc(Nc2nn(CC(=O)N3CCCC3)cc2Cl)s1 [BAA-546, 2-((4-chloro-1-(2-oxo-2-(pyrrolidin-1-yl)ethyl)-1H-pyrazol-3-yl)amino)-N-(3-hydroxy-2,6-dimethylphenyl)thiazole-5-carboxamide]",> 5,Y (>20 fold)
> 7.30,4.96 to 6.00,X (100-<1000 fold),> 7.00,"CCN(CCOC)C(=O)Cn1cc(C)c(Nc2ncc(C(=O)Nc3c(C)ccc(O)c3C)s2)n1 [BAA-550, 2-((1-(2-(ethyl(2-methoxyethyl)amino)-2-oxoethyl)-4-methyl-1H-pyrazol-3-yl)amino)-N-(3-hydroxy-2,6-dimethylphenyl)thiazole-5-carboxamide]",> 5,Y (>20 fold)
